# Measurements taken from ChEMBL document CHEMBL4823254, “Tetrahydroquinoline-Capped Histone Deacetylase 6 Inhibitor SW-101 Ameliorates Pathological Phenotypes in a Charcot-Marie-Tooth Type 2A Mouse Model” (J Med Chem, 2021).
# Calls of active or inactive are those of the source.
# How the values were obtained:
# [1] = Unbound AUC (0 to infinity) in C57BL/6J mouse plasma at 15 mg/kg, ip; format: ADME, organism-based; details: in vivo
# Histone deacetylase 1 = Histone deacetylase 1 (Homo sapiens, UniProt Q13547)
# Chain of Histone deacetylase 1 (Q13547 whole entry): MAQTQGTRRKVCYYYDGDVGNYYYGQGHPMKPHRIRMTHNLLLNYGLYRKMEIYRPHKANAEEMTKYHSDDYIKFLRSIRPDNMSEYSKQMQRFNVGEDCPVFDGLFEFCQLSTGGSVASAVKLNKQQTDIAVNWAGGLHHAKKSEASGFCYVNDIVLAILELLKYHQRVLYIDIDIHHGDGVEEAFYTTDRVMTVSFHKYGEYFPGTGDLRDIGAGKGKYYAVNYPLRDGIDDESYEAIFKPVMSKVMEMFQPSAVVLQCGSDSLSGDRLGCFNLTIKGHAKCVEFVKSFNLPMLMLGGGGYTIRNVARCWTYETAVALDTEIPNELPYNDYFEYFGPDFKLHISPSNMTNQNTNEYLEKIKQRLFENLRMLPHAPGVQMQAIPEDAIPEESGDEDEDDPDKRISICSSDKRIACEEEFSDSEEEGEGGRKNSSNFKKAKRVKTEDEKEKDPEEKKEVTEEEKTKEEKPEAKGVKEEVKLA
# Description: Inhibition of recombinant human HDAC1 using Ac-GAK(Ac)-AMC as substrate preincubated for 10 mins followed by substrate addition and measured after 30 mins by fluorescence-based assay
# Histone deacetylase 11 = molecular target: T1, Histone deacetylase 11 (Homo sapiens, UniProt Q96DB2); test: Inhibition of recombinant human HDAC11 expressed in HEK293T/17 cells using Boc-Lys(TFA)-AMC as substrate preincubated for 10 mins followed by substrate addition and measured after 30 mins by fluorescence-based assay
# T1 sequence (Q96DB2 whole entry): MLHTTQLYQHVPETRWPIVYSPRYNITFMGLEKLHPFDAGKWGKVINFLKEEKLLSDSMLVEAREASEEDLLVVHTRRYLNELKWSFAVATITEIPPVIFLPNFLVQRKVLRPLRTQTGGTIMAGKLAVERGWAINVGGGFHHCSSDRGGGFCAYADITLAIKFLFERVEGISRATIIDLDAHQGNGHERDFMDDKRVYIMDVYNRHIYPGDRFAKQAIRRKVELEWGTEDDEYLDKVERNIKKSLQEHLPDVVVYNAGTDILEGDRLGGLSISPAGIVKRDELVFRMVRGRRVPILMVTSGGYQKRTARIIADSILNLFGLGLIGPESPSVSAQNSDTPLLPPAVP
# [2] = molecular target: T2, Protein deacetylase HDAC6 (Mus musculus) (UniProt Q9Z2V5); test: In vivo inhibition of HDAC6 in wild type mouse assessed as increase in alpha-tubulin acetylation in sciatic nerve tissue at 10 to 20 mg/kg, ip measured after 48 hrs by immunoblot analysis; format: functional, organism-based; details: dose 10-20 mg/kg
# T2 sequence (whole entry): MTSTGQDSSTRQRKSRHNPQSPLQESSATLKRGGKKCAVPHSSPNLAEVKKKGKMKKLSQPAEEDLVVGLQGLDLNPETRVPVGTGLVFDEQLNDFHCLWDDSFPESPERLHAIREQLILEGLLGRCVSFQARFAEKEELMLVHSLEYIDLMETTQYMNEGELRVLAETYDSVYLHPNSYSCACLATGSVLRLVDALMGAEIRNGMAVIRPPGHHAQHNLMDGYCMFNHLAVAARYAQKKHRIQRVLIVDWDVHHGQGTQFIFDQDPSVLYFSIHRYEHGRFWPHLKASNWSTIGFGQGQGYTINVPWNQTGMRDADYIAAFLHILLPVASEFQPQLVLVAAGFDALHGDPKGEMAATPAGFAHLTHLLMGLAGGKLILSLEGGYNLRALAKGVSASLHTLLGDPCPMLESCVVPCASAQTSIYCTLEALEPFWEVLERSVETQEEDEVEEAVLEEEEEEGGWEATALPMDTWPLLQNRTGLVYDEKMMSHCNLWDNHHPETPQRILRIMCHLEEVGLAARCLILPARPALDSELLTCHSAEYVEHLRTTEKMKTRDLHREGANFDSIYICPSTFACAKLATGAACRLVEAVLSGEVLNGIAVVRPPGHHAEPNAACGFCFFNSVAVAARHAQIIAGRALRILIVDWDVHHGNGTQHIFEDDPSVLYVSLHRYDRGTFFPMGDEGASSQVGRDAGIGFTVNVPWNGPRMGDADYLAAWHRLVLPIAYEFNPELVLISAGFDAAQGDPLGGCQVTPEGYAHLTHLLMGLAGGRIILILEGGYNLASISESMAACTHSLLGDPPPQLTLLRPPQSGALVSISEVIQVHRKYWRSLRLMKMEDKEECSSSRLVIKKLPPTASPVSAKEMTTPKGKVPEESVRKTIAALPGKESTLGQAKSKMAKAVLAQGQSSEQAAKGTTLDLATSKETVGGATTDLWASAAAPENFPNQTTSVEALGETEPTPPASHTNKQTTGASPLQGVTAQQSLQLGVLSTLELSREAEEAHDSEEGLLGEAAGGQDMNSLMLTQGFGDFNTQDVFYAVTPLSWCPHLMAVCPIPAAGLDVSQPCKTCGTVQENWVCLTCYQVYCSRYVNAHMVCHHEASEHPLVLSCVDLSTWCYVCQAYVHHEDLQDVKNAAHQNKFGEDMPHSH
# Mus musculus = test: Neuroprotective activity in hMFN2-induced CMT2A transgenic mouse model assessed as increase in paw withdrawal threshold at 20 mg/kg, ip qd by von Frey test; format: functional, organism-based
# [3] = Cmax in C57BL/6J mouse brain at 15 mg/kg, ip; format: ADME, organism-based; design: route intraperitoneal, dose 15 mg/kg
compound,measurement,setting,value
NC(=O)c1ccc2c(c1)CCCN2Cc1ccc(C(=O)NO)cc1,fAUC,[1],421 ng·h/mL
same,IC50,Histone deacetylase 1,0.356 µM
same,IC50,Histone deacetylase 11,5.31 µM
same,inhibition,[2],inactive
same,Activity,Mus musculus,Active
same,Cmax,[3],223 ng/mL
